In PubChem BioAssay AID328 (DTP/NCI, 2004) one finds T/C data, which are given here for 16 molecules.

For the experiment, the system named is BDF1 mice, P388 leukemia ip, median survival T/C. Briefly: NCI In Vivo Anticancer Drug Screen. Data for tumor model P388 Leukemia (intraperitoneal) in B6D2F1 (BDF1) mice. The note with it: endpoint: median survival time, higher = longer survival. In outline: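 Read-out is survival of treated animals expressed relative to the vehicle group, as a T/C ratio.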

The mark [1] stands for this setting: dose: 25.0 mg/kg/injection, schedule: Q01DX009 (ip), vehicle: saline.
Where [2] appears, read: dose: 100.0 mg/kg/injection, schedule: Q01DX009 (ip), vehicle: Klucel (hydroxypropylcellulose) (HPC).
Where [3] appears, read: dose: 200.0 mg/kg/injection, schedule: Q01DX009 (ip), vehicle: Klucel (hydroxypropylcellulose) (HPC).
Setting [4] is: dose: 100.0 mg/kg/injection, schedule: Q04DX003 (ip), vehicle: Klucel (hydroxypropylcellulose) (HPC).
The mark [5] stands for this setting: dose: 200.0 mg/kg/injection, schedule: Q04DX003 (ip), vehicle: Klucel (hydroxypropylcellulose) (HPC).
The mark [6] stands for this setting: dose: 400.0 mg/kg/injection, schedule: Q04DX003 (ip), vehicle: Klucel (hydroxypropylcellulose) (HPC).
Setting [7] is: dose: 100.0 mg/kg/injection, schedule: Q04DX003 (ip), vehicle: saline with Tween-80.
Where [8] appears, read: dose: 400.0 mg/kg/injection, schedule: Q04DX003 (ip), vehicle: saline with Tween-80.
Where [9] appears, read: dose: 50.0 mg/kg/injection, schedule: Q01DX009 (ip), vehicle: saline with Tween-80.
Where [10] appears, read: dose: 100.0 mg/kg/injection, schedule: Q01DX009 (ip), vehicle: saline with Tween-80.
[11] abbreviates: dose: 200.0 mg/kg/injection, schedule: Q01DX009 (ip), vehicle: saline with Tween-80.
[12] abbreviates: dose: 200.0 mg/kg/injection, schedule: Q04DX003 (ip), vehicle: saline with Tween-80.
[13] abbreviates: dose: 400.0 mg/kg/injection, schedule: Q01DX009 (ip), vehicle: saline with Tween-80.
The mark [14] stands for this setting: dose: 25.0 mg/kg/injection, schedule: Q04DX003 (ip), vehicle: saline with Tween-80.
Where [15] appears, read: dose: 50.0 mg/kg/injection, schedule: Q04DX003 (ip), vehicle: saline with Tween-80.
[16] abbreviates: dose: 12.5 mg/kg/injection, schedule: Q01DX009 (ip), vehicle: saline with Tween-80.

Where “and” joins values, the source holds several entries; their conditions need not be identical. Identical values can stand only once. Inconclusive results and toxic doses are left out.

Take `COc1cc2c(cc1OCc1ccccc1)C=CN(C(=O)c1ccccc1)C2C#N` (centres undefined): the T/C runs as follows: under setting [1], 105 % of control; (dose: 25.0 mg/kg/injection, schedule: Q04DX003 (ip), vehicle: saline) 103 % of control; (dose: 50.0 mg/kg/injection, schedule: Q01DX009 (ip), vehicle: saline) 92 % of control; (dose: 50.0 mg/kg/injection, schedule: Q04DX003 (ip), vehicle: saline) 100 % of control; (dose: 100.0 mg/kg/injection, schedule: Q01DX009 (ip), vehicle: saline) 93 % of control; (dose: 100.0 mg/kg/injection, schedule: Q04DX003 (ip), vehicle: saline) 97 % of control. Besides, the T/C (dose: 200.0 mg/kg/injection, schedule: Q01DX009 (ip), vehicle: saline) was 90 % of control; the T/C (dose: 200.0 mg/kg/injection, schedule: Q04DX003 (ip), vehicle: saline) is 103 % of control; the T/C (dose: 400.0 mg/kg/injection, schedule: Q01DX009 (ip), vehicle: saline) was 96 % of control; the T/C (dose: 400.0 mg/kg/injection, schedule: Q04DX003 (ip), vehicle: saline) is 97 % of control.

With `Cc1c(O)c([N+](=O)[O-])cc2c1OCOC2`, the T/C is, setting by setting: under setting [2], 95 % of control; under setting [3], 104 % of control; (dose: 400.0 mg/kg/injection, schedule: Q01DX009 (ip), vehicle: Klucel (hydroxypropylcellulose) (HPC)) 95 % of control.

As for `CC(C)OC(=S)SSC(=S)OC(C)C`, the T/C runs as follows: (dose: 100.0 mg/kg/injection, schedule: Q01DX001 (ip), vehicle: Klucel (hydroxypropylcellulose) (HPC)) 118 % of control; under setting [2], 104 % of control; under setting [4], 104 % of control; (dose: 200.0 mg/kg/injection, schedule: Q01DX001 (ip), vehicle: Klucel (hydroxypropylcellulose) (HPC)) 109 % of control; under setting [3], 109 % of control; under setting [5], 118 % of control. Besides, the T/C by setting is: (dose: 400.0 mg/kg/injection, schedule: Q01DX001 (ip), vehicle: Klucel (hydroxypropylcellulose) (HPC)) 104 % of control; under setting [6], 118 % of control.

For the molecule `O=[N+]([O-])c1ccc2c(c1)C(Br)c1ccccc1-2` (centres undefined), the T/C (dose: 50.0 mg/kg/injection, schedule: Q01DX009 (ip), vehicle: Klucel (hydroxypropylcellulose) (HPC)) is 90 % of control; the T/C under setting [2] was 118 % of control; the T/C under setting [3] was 118 % of control.

Consider `CCCCCCCCCC(=O)OCC1OC(=O)C(C)N(C)C(=O)CN(C)C(=O)C2C(=O)CC(C)N2C(=O)C(C(C)C)NC(=O)C1NC(=O)c1c2nc3c(C(=O)NC4C(=O)NC(C(C)C)C(=O)N5C(C)CC(OC(=O)CCCCCCCCC)C5C(=O)N(C)CC(=O)N(C)C(C(C)C)C(=O)OC4C)ccc(C)c3oc-2c(C)c(=O)c1N` (centres undefined), for which the T/C was 105 % of control (dose: 0.1 mg/kg/injection, schedule: Q01DX009 (ip), vehicle: saline with Tween-80); 93 % of control (dose: 0.2 mg/kg/injection, schedule: Q01DX009 (ip), vehicle: saline with Tween-80); 107 % of control (dose: 0.3 mg/kg/injection, schedule: Q04DX003 (ip), vehicle: saline with Tween-80); 89 % of control (dose: 0.4 mg/kg/injection, schedule: Q01DX009 (ip), vehicle: saline with Tween-80); 92 % of control (dose: 0.6 mg/kg/injection, schedule: Q04DX003 (ip), vehicle: saline with Tween-80); 98 % of control (dose: 0.8 mg/kg/injection, schedule: Q01DX001 (ip), vehicle: saline with Tween-80). Besides, the T/C is 96 % of control (dose: 0.8 mg/kg/injection, schedule: Q01DX009 (ip), vehicle: saline with Tween-80); 107 % of control (dose: 1.6 mg/kg/injection, schedule: Q01DX001 (ip), vehicle: saline with Tween-80); 117 % of control (dose: 1.6 mg/kg/injection, schedule: Q01DX009 (ip), vehicle: saline with Tween-80); 96 % of control (dose: 2.4 mg/kg/injection, schedule: Q04DX003 (ip), vehicle: saline with Tween-80); 100 % of control (dose: 3.2 mg/kg/injection, schedule: Q01DX001 (ip), vehicle: saline with Tween-80); 92 % of control (dose: 4.8 mg/kg/injection, schedule: Q04DX003 (ip), vehicle: saline with Tween-80). For the same molecule, the T/C is 100 % of control (dose: 6.4 mg/kg/injection, schedule: Q01DX001 (ip), vehicle: saline with Tween-80) and 97 % of control (dose: 12.8 mg/kg/injection, schedule: Q01DX001 (ip), vehicle: saline with Tween-80).

For `Nc1nc(C=O)c(-c2cccc3ccccc23)c(=O)[nH]1`, the T/C by setting is: under setting [7], 113 % of control; under setting [8], 150 % of control.

Regarding `N#CC1c2ccccc2C=CN1C(=O)c1ccccc1` (centres undefined), the T/C was 115 % of control under setting [9]; 110 % of control under setting [10]; 100 % of control under setting [4]; 100 % of control under setting [7]; 110 % of control under setting [11]; 109 % of control under setting [5]. Besides, the T/C is, setting by setting: under setting [12], 100 % of control; under setting [13], 110 % of control; under setting [6], 109 % of control; under setting [8], 100 % of control.

With `CCN(CC)Cc1cc(Nc2c3ccccc3nc3cc(Cl)ccc23)ccc1O`, the T/C is 100 % of control (dose: 12.5 mg/kg/injection, schedule: Q01DX009 (ip), vehicle: saline); 104 % of control (dose: 12.5 mg/kg/injection, schedule: Q04DX003 (ip), vehicle: saline sonified); 100 % of control under setting [1]; 100 % of control (dose: 25.0 mg/kg/injection, schedule: Q04DX003 (ip), vehicle: saline sonified); 104 % of control (dose: 50.0 mg/kg/injection, schedule: Q04DX003 (ip), vehicle: saline sonified).

Take `c1ccc2cc3nc4cc5ccccc5cc4nc3cc2c1`: the T/C was 99 % of control under setting [10], 100 % of control under setting [11] and 100 % of control under setting [13].

With `CCN1C(=O)Nc2ccc(Cl)cc2C1(O)c1ccccc1` (centres undefined), the T/C was 97 % of control under setting [9] and 97 % of control under setting [11].

As for `O=C1Cc2cc(=C(c3ccccc3)c3ccccc3)ccc2=C1c1ccccc1`, the T/C was 93 % of control (dose: 50.0 mg/kg/injection, schedule: Q01DX005 (ip), vehicle: saline with Tween-80); 96 % of control (dose: 100.0 mg/kg/injection, schedule: Q01DX005 (ip), vehicle: saline with Tween-80); 91 % of control (dose: 200.0 mg/kg/injection, schedule: Q01DX005 (ip), vehicle: saline with Tween-80).

Regarding `COc1ccc(C[n+]2cc([O-])on2)cc1`, the T/C reads like this: under setting [14], 100 % of control; under setting [15], 100 % of control; under setting [7], 109 % of control and 113 % of control; under setting [12], 113 % of control.

`NC(=S)N/N=C/c1ccc(OC(=O)Cc2ccccc2)cn1`: the T/C under setting [16] is 150 % of control.

With `C/C=C(/C)C(=O)O[C@H]1CC[N+]2([O-])CC=C(COC(=O)[C@@](O)([C@H](C)OC)C(C)(C)O)[C@H]12` (some centres undefined), the T/C runs as follows: (dose: 40.0 mg/kg/injection, schedule: Q01DX010 (ip), vehicle: saline) 105 % of control; (dose: 50.0 mg/kg/injection, schedule: Q01DX010 (ip), vehicle: saline) 86 % of control; (dose: 80.0 mg/kg/injection, schedule: Q01DX010 (ip), vehicle: saline) 111 % of control.

On to `C[N+](C)(Cc1ccccc1)CC(O)COc1ccccc1` (centres undefined), for which the T/C under setting [16] was 96 % of control; the T/C (dose: 12.5 mg/kg/injection, schedule: Q04DX003 (ip), vehicle: saline with Tween-80) is 118 % of control; the T/C (dose: 25.0 mg/kg/injection, schedule: Q01DX009 (ip), vehicle: saline with Tween-80) is 103 % of control; the T/C under setting [14] is 113 % of control; the T/C under setting [15] was 104 % of control.

On to `O=[N+]([O-])c1cc([N+](=O)[O-])c2ccc(S(=O)(=O)O)cc2c1O`, for which the T/C was 106 % of control (dose: 6.25 mg/kg/injection, schedule: Q04DX002 (ip), vehicle: saline); 101 % of control (dose: 12.5 mg/kg/injection, schedule: Q04DX002 (ip), vehicle: saline); 105 % of control (dose: 25.0 mg/kg/injection, schedule: Q04DX002 (ip), vehicle: saline).
